Results published in patent US20050004029A1, “Methods and compositions for treating vascular leak using hepatocyte growth factor” (priority 2001, published 2005).

Assays:
p38 MAPK = p38 MAPK activation by phospho-specific immunoblotting; format: cell-based, human; conditions: HGF 20 ng/ml
Experimental: (§1) Endothelial cell monolayers grown to confluence in 12-well plates and challenged with HGF were lysed with 100 μl of 2×SDS sample buffer, and cell lysates were transferred into microcentrifuge tubes and boiled for 5 min. After a brief spin, proteins from 10 μl cell lysates were separated on 12% SDS-PAGE and transferred to nitrocellulose (Schleicher & Schuell, Keene, N.H.) (30V, 18 h). After blocking with PBST (PBS with 0.1% Tween 20) containing 5% non-fat milk for 1 hr, nitrocellulose blots were reacted with primary antibodies diluted in PBST containing 5% BSA for 1 hr, washed with PBST (3×10 min), incubated with peroxidase-conjugated secondary antibodies (goat anti-rabbit IgG, 1:10,000 dilution, Sigma; or goat anti-mouse IgG, 1:10,000 dilution, Bio-Rad Labs, Richmond, Calif.) diluted in PBST with 5% non-fat milk for 1 hr and again washed with PBST (3×10 min). Finally, immunoreactive proteins were detected using ECL. The relative intensities of the protein bands were quantified by scanning densitometry.
The MAP family of kinases (ERK1/2 and p38) are actively involved in agonist-induced endothelial cell actin reorganization and barrier regulation (Verin, A. D. et al. (2000) Am. J. Physiol: Lung Cell Molec. Phys. 279:L360-L370, 2000; Garcia, J. G. N. et al. (2001) J. Clin. Invest. 108:689-711) and have been noted to participate in HGF-mediated cell activation (Liang, C. C. and Chen, H. C. (2001) J. Biol. Chem. 276:21146-21152). These reports were confirmed in human endothelial cell monolayers incubated with HGF (20 ng/ml, for 1, 2, 5, 10, 15, 20, 30, 60, or 120 min) where activation of p42/44 ERK and p38 MAPK by HGF was detected by immunoblotting with antibodies that only recognize the phosphorylated (activated) forms of ERK or p38 MAPK. The activation of ERKs was evident at 5 min, maximal after 10-15 min with a gradual decline thereafter, but remaining sustained above basal levels for more than 2 hrs. […] The onset of HGF-mediated activation of p38 MAPK was similar to ERK, with plateau at 10-15 min. […]

PKCα = PKCα activation (phospho-PKC immunoreactivity, membrane translocation); format: cell-based, human; conditions: after HGF
Experimental: as §1
Endothelial cells were fractionated into cytosolic, membrane, and nuclear/cytoskeleton fractions as described in Borbiev, T. et al. (2001) Am. J. Physiol. Lung Cell. Mol. Physiol. 280:L983-L990. […]

[1] = tested on: human endothelial monolayers; experiment: F-actin immunofluorescent microscopy (cortical actin ring); format: cell-based; conditions: HGF 20 ng/ml
Experimental: Endothelial cell monolayers grown on gelatinized cover slips were rinsed with M199 and incubated with agonists in the same medium in a 37° C. incubator (5% CO2). Monolayers were then rinsed with PBS (3×2 min), fixed in 4% paraformaldehyde for 10 min, again rinsed with PBS (3×2 min), and permeabilized with 0.25% Triton X-100 for 5 min. Cells were then washed briefly with PBS (3×2 min), blocked with PBS containing 2% BSA for 30 min and incubated with 1 Unit/mL of Texas Red-X phalloidin (Molecular Probes, Eugene, Oreg.), β-catenin antibody (Transduction Laboratories, Lexington, Ky.), glycogen synthase kinase-3 β (GSK-3β) (Santa Cruz Biotechnology, Inc., Santa Cruz, Calif.), or mono-phosphorylated MLC antisera (see Garcia, J. G. N. et al. (2001) J. Clin. Invest. 108:689-711) for 1 hr. After washing with PBS (3×2 min), cover slips were mounted on slides using SlowFade mounting medium (Molecular Probes). Cells were analyzed using a 60× oil objective on a Nikon Eclipse TE 300 microscope. Images were captured by Sony Digital Photo camera DKC 5000. […]
The effect of HGF on the spatial localization of polymerized actin in human endothelial monolayers was investigated by immunofluorescent microscopy. […] F-actin staining was assessed with Texas red phalloidin and myosin light chain staining evaluated with anti-monophosphorylated myosin light chain polyclonal antibody.

Rac GTPase = Rac GTPase activity, p21 Rac-binding domain assay; format: cell-based; conditions: HGF 10 ng/mL or Sph-1-P 1 μM for 1 or 5 min
Experimental: Endothelial cells grown in 100 mm dishes were incubated with agonists in serum-free M199. Cells were lysed in 500 μl Mg^2+ lysis buffer (Upstate Biotechnology, Lake Placid, N.Y.) and homogenized by pipetting. After a brief centrifugation to remove the cell debris, 300 μl of supernatant was incubated with the agarose-conjugated p21-binding domain (PBD) of human PAK-1 (10 μg, 30 min, Upstate Biotechnology). The agarose beads were washed with 1 ml of lysis buffer 5 times and re-suspended in 30 μl of 2×SDS buffer. After 10 min centrifugation at 14,000 g, 15 μl of supernatant from each sample was subjected to electrophoresis in 15% PAGE. […] For total Rac protein measurement, 5 μl of the original cell lysates were used for electrophoresis and western analysis. […] Pulmonary artery endothelial cells were incubated with HGF (10 ng/mL) or Sph-1-P (1 μM) for 1 or 5 min. Cells were lysed, supernatants collected, and activated GTP-bound Rac was precipitated by agarose-conjugated human PAK-1 p21-binding domain and subsequently immunoblotted by anti-Rac mAb. Total Rac protein was detected using cell lysates.

With “HGF: heparin-binding glycoprotein, multifunctional cytokine, ligand of c-Met; purchased from R&D Systems” the “time at which p38 MAPK activation begins to decline” value (p38 MAPK) was no more than 20 min, the “time of plateau of p38 MAPK activation” value (p38 MAPK) was 10 to 15 min and the “time of return of p38 MAPK activation to basal value” (p38 MAPK) was no more than 1 h. The “time at which PKCα activation is detectable (phospho-PKC immunoreactivity)” value (PKCα) was 15 min, the “time of PKCα translocation to the membrane fraction” value (PKCα) was 5 min and the F-actin staining [1] was “rapid enhancement of F-actin staining spatially confined to the cortical cytoskeletal ring”. For the same substance, the Rac activity (Rac GTPase) was “rapidly and transiently increases Rac activity”.
